Data published in US20160281050A1, “METHODS FOR TREATING A CULTURE OF HAEMATOCOCCUS PLUVIALIS FOR CONTAMINATION USING SALT AND HYDROGEN PEROXIDE” (HELIAE DEVELOPMENT LLC, priority 2015, published 2016).
Where two headings read alike, the source gives them in different places.

Experiments:
[1] = tested on: Green swimmer cells of Haematococcus pluvialis (Strain 2)
Protocol: (§1) The calculated concentrations of the hydrogen peroxide doses tested were 0.0105, 0.0140, 0.0175, 0.0210, and 0.0245 mL/L. The amount of cell lysis was quantified using visual observation under a microscope after 24, 48, and 72 hours.

[2] = tested on: red cyst cells of Haematococcus pluvialis (Strain 2)
Protocol: as §1

[3] = tested on: Haematococcus pluvialis (Strain 1) green swimmer cells; details: for % Lysis: samples from Bioreactor #2430 48 hours after transfer
Protocol: A series of experiments were conducted to determine if treating a culture of Haematococcus pluvialis with hydrogen peroxide prevents lysis.

[4] = tested on: Haematococcus pluvialis (Strain 1) green swimmer cells; test: Commercial scale cultures: lysis, carotenoid content (UV), average growth rate (Example 5); details: for Maximum % Lysis of Culture: 0.007 mL/L every six hours
Source text: The findings from the flask test samples were then applied to commercial scale cultures of Haematococcus pluvialis (Strain 1) containing green swimmer cells that were transferred from open raceway pond bioreactor #2310 disposed in a greenhouse, using paddlewheel mixing, and operating in conditions: reactor volume of 55,000 L; Daily PAR of 42 mol m^−2 d^−1; pH of 7.5; and paddlewheel speed of 40%; to open raceway pond bioreactor #2420 disposed in a greenhouse, using paddlewheel mixing, operating in conditions: reactor volume of 140,000 L; Daily PAR of 40 mol m^−2 d^−1; pH of 7.3; and paddlewheel speed of 70%. Similarly, the culture in bioreactor #2320, operating in conditions: reactor volume of 60,000 L; Daily PAR of 42 mol m^−2 d^−1; pH of 7.5; and paddlewheel speed of 40%; was transferred by being split into pond bioreactors #2410 and 2430 operating in conditions: reactor volume of 150,000 L; Daily PAR of 40 mol m^−2 d^−1; pH of 7.3; and paddlewheel speed of 70%. […] Lysis was quantified upon harvest of the culture through visual observation of samples under a microscope. Carotenoid content of the cells was measured by UV method upon harvest, and the average growth rate of the culture was calculated based on periodic dry weight samples. The results were compared to data from previous culture runs in the same bioreactors or bioreactors with similar operating conditions during the same month (September 2014) at the same location.

[5] = 0.0140 mL/L three times per day, 24 h
[6] = 0.0140 mL/L three times per day, 48 h
[7] = 0.0140 mL/L three times per day, 72 h
[8] = 0.0175 mL/L three times per day, 24 h
[9] = 0.0175 mL/L three times per day, 48 h
[10] = 0.0175 mL/L three times per day, 72 h
[11] = 0.0210 mL/L three times per day, 24 h
[12] = 0.0210 mL/L three times per day, 48 h
[13] = 0.0210 mL/L three times per day, 72 h
[14] = 0.0245 mL/L three times per day, 24 h
[15] = 0.0245 mL/L three times per day, 48 h
[16] = 0.0245 mL/L three times per day, 72 h

## hydrogen peroxide [H2O2]
[1]; 0.0105 mL/L three times per day, 24 h
  % Cell lysis (±1SE): 3.3% ± 1.7%
[1]; 0.0105 mL/L three times per day, 48 h
  % Cell lysis (±1SE): 5.0% ± 1.7%
[1]; 0.0105 mL/L three times per day, 72 h
  % Cell lysis (±1SE): 3.3% ± 0.0%
[1]; 0.0105 mL/L, for at least 72 hours
  cell lysis level: below 10%
[1]; [5]
  % Cell lysis (±1SE): 4.2% ± 0.8%
[1]; [6]
  % Cell lysis (±1SE): 5.8% ± 2.5%
[1]; [7]
  % Cell lysis (±1SE): 9.2% ± 4.2%
[1]; [8]
  % Cell lysis (±1SE): 2.5% ± 0.8%
[1]; [9]
  % Cell lysis (±1SE): 9.2% ± 2.5%
[1]; [10]
  % Cell lysis (±1SE): 13.3% ± 3.3%
[1]; [11]
  % Cell lysis (±1SE): 4.2% ± 2.5%
[1]; [12]
  % Cell lysis (±1SE): 6.7% ± 1.7%
[1]; [13]
  % Cell lysis (±1SE): 20.0% ± 3.3%
[1]; 0.0210 mL/L, for 48 hours
  cell lysis level: below 10%
[1]; [14]
  % Cell lysis (±1SE): 15.0% ± 0.0%
[1]; [15]
  % Cell lysis (±1SE): 22.5% ± 0.8%
[1]; [16]
  % Cell lysis (±1SE): 27.5% ± 2.5%
[2]; [5]
  % Cell lysis (±1SE): 1.7% ± 1.0%
[2]; [6]
  % Cell lysis (±1SE): 0.8% ± 0.8%
[2]; [7]
  % Cell lysis (±1SE): 3.3% ± 0.0%
[2]; 0.0140 mL/L three times per day, 96 h
  % Cell lysis (±1SE): 3.3% ± 1.7%
[2]; [8]
  % Cell lysis (±1SE): 1.1% ± 0.6%
[2]; [9]
  % Cell lysis (±1SE): 3.3% ± 1.7%
[2]; [10]
  % Cell lysis (±1SE): 5.8% ± 5.8%
[2]; 0.0175 mL/L three times per day, 96 h
  % Cell lysis (±1SE): 5.8% ± 2.5%
[2]; [11]
  % Cell lysis (±1SE): 3.9% ± 2.0%
[2]; [12]
  % Cell lysis (±1SE): 0.8% ± 0.8%
[2]; [13]
  % Cell lysis (±1SE): 1.7% ± 0.0%
[2]; 0.0210 mL/L three times per day, 96 h
  % Cell lysis (±1SE): 18.3% ± 1.7%
[2]; [14]
  % Cell lysis (±1SE): 3.9% ± 0.6%
[2]; [15]
  % Cell lysis (±1SE): 5.0% ± 1.7%
[2]; [16]
  % Cell lysis (±1SE): 9.2% ± 0.8%
[2]; 0.0245 mL/L three times per day, 96 h
  % Cell lysis (±1SE): 51.7% ± 5.0%
[2]; dosages at or above 0.0175 mL/L, after 48-96 hours
  cell lysis level: above 10%
[2]; dosages below 0.0175 mL/L, for at least 96 hours
  cell lysis level: below 10%
[3]; Tables 6 and 7, 0.007 mL/L three times per day
  lysis level with the hydrogen peroxide treatments: less than 30%
[3]; samples from Bioreactor #2330, 0.007 mL/L three times per day, 0 h
  % Lysis (±1SD): 8.3 ± 7.6%
[3]; samples from Bioreactor #2330, 0.007 mL/L three times per day, 24 h
  % Lysis (±1SD): 10.0 ± 4.7%
[3]; samples from Bioreactor #2330, 0.007 mL/L three times per day, 48 h
  % Lysis (±1SD): 12.5 ± 3.5%
[3]; samples from Bioreactor #2330, 0.007 mL/L three times per day, 72 h
  % Lysis (±1SD): 0.0 ± 0.0%
[3]; samples from Bioreactor #2330, 0.007 mL/L three times per day, 120 h
  % Lysis (±1SD): 0.8 ± 1.2%
[3]; samples from Bioreactor #2430 24 hours after transfer, 0.007 mL/L three times per day, 0 h
  % Lysis (±1SD): 0.0 ± 0.0%
[3]; samples from Bioreactor #2430 24 hours after transfer, 0.007 mL/L three times per day, 24 h
  % Lysis (±1SD): 7.5 ± 1.2%
[3]; samples from Bioreactor #2430 24 hours after transfer, 0.007 mL/L three times per day, 48 h
  % Lysis (±1SD): 0.0 ± 0.0%
[3]; samples from Bioreactor #2430 24 hours after transfer, 0.007 mL/L three times per day, 96 h
  % Lysis (±1SD): 4.1 ± 1.2%
[3]; 0.007 mL/L three times per day, 0 h
  % Lysis: 3.3 ± 2.9%
[3]; 0.007 mL/L three times per day, 24 h
  % Lysis: 25.0 ± 9.4%
[3]; 0.007 mL/L three times per day, 96 h
  % Lysis: 16.7 ± 4.7%
[3]; vs control cultures, Tables 6 and 7
  reduction of lysis: 60-80%
[4]; Bioreactor 2410
  Maximum % Lysis of Culture: 70%
[4]; Bioreactor 2420
  Maximum % Lysis of Culture: 20%
[4]; Bioreactor 2430
  Maximum % Lysis of Culture: 35%
[4]; at least 0.007 mL/L every 6 hours, flask tests and commercial scale cultures together
  reduction of the level of cell lysis: at least 60%
[4]; two of the commercial scale cultures treated with hydrogen peroxide
  lysis: 20-35%
